Results reported in the supplement of paper PMC10307832.

Assays:
Assay in all cases: relative viability (nuclei count vs DMSO), 5 days (fraction); higher = more cells survive
[1] = compound: C1/C(=C\C2=CC=CS2)/C(=O)/C(=C/C3=CC=CS3)/C1 + COc1cccc2cc(-c3nc([C@H]4CC[C@H](C(=O)O)CC4)n4ncnc(N)c34)[nH]c12 [OSI-027] (partner 0.5 µM)
Method in brief: (§1)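 Five library-drug doses in √10 steps were combined with a fixed anchor-drug dose, or a single drug was given alone, by pin tool to lung cancer cell lines in 1536-well plates the day after seeding. Nuclei were stained and counted after 5 days. Relative viability is the nuclei count in treated wells over that in vehicle wells, taken as the median of duplicate plates.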

[2] = compound: C1/C(=C\C2=CC=CS2)/C(=O)/C(=C/C3=CC=CS3)/C1 + Nc1ncn([C@H]2C[C@H](O)[C@@H](CO)O2)c(=O)n1 [Decitabine] (partner 2 µM)
Method in brief: as §1

TPCA-1 + Navitoclax = compound: C1=CC(=CC=C1C2=CC(=C(S2)NC(=O)N)C(=O)N)F [TPCA-1] + CC1(C)CCC(c2ccc(Cl)cc2)=C(CN2CCN(c3ccc(C(=O)NS(=O)(=O)c4ccc(N[C@H](CCN5CCOCC5)CSc5ccccc5)c(S(=O)(=O)C(F)(F)F)c4)cc3)CC2)C1 [Navitoclax] (partner 0.5 µM)
Method in brief: as §1

TPCA-1 + AZD7762 = compound: C1=CC(=CC=C1C2=CC(=C(S2)NC(=O)N)C(=O)N)F [TPCA-1] + NC(=O)Nc1cc(-c2cccc(F)c2)sc1C(=O)N[C@H]1CCCNC1 [AZD7762] (partner 0.2 µM)
Method in brief: as §1

| Cell Line | relative viability ([1]; first compound 0.2 µM) | relative viability ([1]; first compound 0.6325 µM) | relative viability ([1]; first compound 2 µM) | relative viability ([1]; first compound 6.325 µM) | relative viability ([1]; first compound 20 µM) | relative viability ([2]; first compound 0.2 µM) | relative viability ([2]; first compound 0.6325 µM) | relative viability ([2]; first compound 2 µM) | relative viability ([2]; first compound 6.325 µM) | relative viability ([2]; first compound 20 µM) | relative viability (TPCA-1 + Navitoclax; first compound 0.04 µM) | relative viability (TPCA-1 + Navitoclax; first compound 0.1265 µM) | relative viability (TPCA-1 + Navitoclax; first compound 0.4 µM) | relative viability (TPCA-1 + Navitoclax; first compound 1.265 µM) | relative viability (TPCA-1 + Navitoclax; first compound 4 µM) | relative viability (TPCA-1 + AZD7762; first compound 0.04 µM) | relative viability (TPCA-1 + AZD7762; first compound 0.1265 µM) | relative viability (TPCA-1 + AZD7762; first compound 0.4 µM) | relative viability (TPCA-1 + AZD7762; first compound 1.265 µM) | relative viability (TPCA-1 + AZD7762; first compound 4 µM) |
| --- | --- | --- | --- | --- | --- | --- | --- | --- | --- | --- | --- | --- | --- | --- | --- | --- | --- | --- | --- | --- |
| NCI-H647 | 0.624 | 0.716 | 0.67 | 0.391 | 0.684 | 0.43 | 0.424 | 0.32 | 0.441 | 0.357 | 1.1 | 0.9 | 1.22 | 0.67 | 0.706 | 0.618 | 0.447 | 0.629 | 0.451 | 0.327 |
| LXF-289 | 0.869 | 0.811 | 0.852 | 0.696 | 0.729 | 0.371 | 0.386 | 0.355 | 0.373 | 0.344 | 0.937 | 0.907 | 0.949 | 0.915 | 0.839 | 1.1 | 1.09 | 1.1 | 1.07 | 0.774 |
| LOU-NH91 | 0.733 | 0.722 | 0.769 | 0.648 | 0.714 | 0.85 | 0.777 | 0.781 | 0.797 | 0.825 | 0.822 | 0.585 | 0.692 | 0.65 | 0.507 | 0.781 | 0.719 | 0.724 | 0.68 | 0.697 |
| NCI-H23 | 0.689 | 0.683 | 0.717 | 0.572 | 0.579 | 0.32 | 0.293 | 0.314 | 0.34 | 0.285 | 0.823 | 0.742 | 0.687 | 0.616 | 0.694 | 0.338 | 0.261 | 0.21 | 0.235 | 0.223 |
| NCI-H1993 | 0.627 | 0.54 | 0.585 | 0.447 | 0.523 | 0.557 | 0.558 | 0.675 | 0.499 | 0.432 | 1.01 | – | 0.794 | 0.756 | 0.809 | 0.972 | 0.748 | 0.745 | 0.747 | 0.598 |
| HCC-827 | 0.813 | 0.767 | 0.809 | 0.737 | 0.695 | 0.316 | 0.38 | 0.377 | 0.28 | 0.308 | 0.996 | 1.04 | 1.04 | 1 | 0.683 | 0.209 | 0.209 | 0.227 | 0.224 | 0.181 |
| NCI-H838 | 0.412 | 0.38 | 0.409 | 0.491 | 0.365 | 0.42 | 0.473 | 0.468 | 0.448 | 0.449 | 1.23 | 0.985 | 1.13 | 0.995 | 0.812 | 0.972 | 0.855 | 0.935 | 0.801 | 0.886 |
| RERF-LC-KJ | 0.528 | 0.659 | 0.71 | 0.539 | 0.545 | 0.816 | 0.767 | 0.728 | 0.619 | 0.463 | 0.967 | 0.883 | 1.06 | 0.866 | 0.766 | 1.03 | 0.844 | 0.914 | 0.739 | 0.652 |
| HCC-366 | 1.13 | 1.01 | 1.11 | 0.744 | 0.836 | 0.296 | 0.329 | 0.341 | 0.369 | 0.336 | 1.01 | 0.942 | 1.14 | 0.952 | 1 | – | 0.297 | 0.312 | 0.185 | 0.147 |
| HCC-44 | 0.482 | 0.528 | 0.649 | 0.475 | 0.479 | 0.946 | 1 | 0.881 | 0.844 | 0.973 | 0.973 | 0.983 | 1.04 | 0.927 | 0.915 | 1 | 1.01 | 0.982 | 1.08 | 1.02 |
| A-427 | 0.481 | 0.465 | 0.491 | 0.445 | 0.442 | 0.592 | 0.586 | 0.586 | 0.519 | 0.583 | 0.945 | 0.898 | 0.997 | 0.899 | 0.93 | 0.881 | 0.801 | 0.89 | 0.811 | 0.624 |
| NCI-H322M | 0.559 | 0.658 | 0.652 | 0.564 | 0.516 | 0.654 | 0.63 | 0.743 | 0.654 | 0.678 | 1.26 | 1.07 | 1.18 | 1.13 | 1.17 | 0.608 | 0.555 | 0.538 | 0.579 | 0.519 |
| LK-2 | 0.223 | 0.226 | 0.266 | 0.216 | 0.2 | 0.341 | 0.31 | 0.358 | 0.33 | 0.347 | 0.868 | 0.664 | 0.955 | 0.778 | 0.71 | 0.593 | – | 0.53 | 0.392 | 0.131 |
| NCI-H596 | 0.76 | 0.781 | 1.01 | 0.699 | 0.794 | 1.04 | 1.13 | 0.992 | 1.05 | 1.02 | 0.88 | 0.932 | 1.07 | 0.996 | 1.07 | 1.21 | 1.04 | 1.19 | 1.44 | 1.02 |
| NCI-H1793 | 0.333 | 0.303 | 0.322 | 0.202 | 0.31 | 0.526 | 0.554 | 0.614 | 0.305 | 0.469 | 0.425 | 0.354 | 0.413 | 0.342 | 0.319 | 0.53 | 0.649 | 0.751 | 0.392 | 0.144 |
| NCI-H2405 | 0.619 | 0.633 | 0.705 | 0.497 | 0.624 | 0.798 | 0.722 | 0.822 | 0.719 | 0.704 | 0.971 | 0.691 | 0.964 | – | 0.714 | 0.859 | 0.738 | 0.877 | 0.79 | 0.648 |
